The values that follow come from ChEMBL document CHEMBL3988442, “University of Dundee, Small-Polar-MMV Screening Library” (2021).

“And” between values parts separate entries of the source, which are not always exact repeats. Equal values may be shown once.

In this test the target is Sialic acid-binding Ig-like lectin 9 (Homo sapiens, UniProt Q9Y336). Briefly: Hs-Siglec9 ALPHAscreen SOP 20170721.
Sequence of Sialic acid-binding Ig-like lectin 9 (Q9Y336 whole entry): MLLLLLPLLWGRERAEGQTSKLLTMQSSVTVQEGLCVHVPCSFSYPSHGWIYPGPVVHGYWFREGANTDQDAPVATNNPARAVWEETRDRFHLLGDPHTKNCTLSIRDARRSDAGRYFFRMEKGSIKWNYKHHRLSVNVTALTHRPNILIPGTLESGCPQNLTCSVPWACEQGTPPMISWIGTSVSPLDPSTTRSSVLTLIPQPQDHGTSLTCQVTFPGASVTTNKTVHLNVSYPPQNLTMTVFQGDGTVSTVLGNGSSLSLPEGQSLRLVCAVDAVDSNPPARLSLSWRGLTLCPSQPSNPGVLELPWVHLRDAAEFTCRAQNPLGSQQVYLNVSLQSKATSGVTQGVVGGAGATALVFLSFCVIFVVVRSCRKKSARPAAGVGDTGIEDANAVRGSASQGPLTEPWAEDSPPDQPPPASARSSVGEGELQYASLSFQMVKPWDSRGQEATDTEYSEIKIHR

In turn, `Cc1oc(C)c(C(=O)NCc2cccnc2)c1C` gave an IC50 of over 30.2 µM.

In turn, `Cc1nn(C)c(C)c1CCC(=O)NCc1csc(N2CCCC2)n1` had an IC50 of over 30.2 µM.

`CN(C)C(=O)COC[C@]12COC[C@H]1CN(CC1CCC1)C2` showed an IC50 of over 30.2 µM.

`CCS(=O)(=O)CCNC(=O)c1cc2n(n1)CCCO2`: the IC50 was over 30.2 µM.

In turn, `CC(=O)NCC(=O)N1Cc2cc(C#N)ccc2C1c1cnco1` (configuration not stated) had an IC50 of over 30.2 µM.

For the molecule `Cc1ccsc1CN1C[C@@H]2COC[C@]2(COCC(=O)N(C)C)C1`, the IC50 was over 30.2 µM.

Consider `Cc1cc(C(=O)N2CCO[C@H]3[C@H](Oc4ccccn4)CC[C@@H]32)c(C)[nH]1`, for which the IC50 was over 30.2 µM.

In turn, `COCc1cc(N2CCN(C3CCCCC3)CC2)n2nccc2n1` showed an IC50 of over 30.2 µM.

In the case of `Cc1csc(CN2C[C@@H]3COC[C@]3(COCC(=O)N(C)C)C2)n1`, the IC50 is over 30.2 µM.

Regarding `CCNC(=O)c1nnn(Cc2ccccc2)c1OC`, the IC50 was over 30.2 µM.

As to `CCc1cc(C(=O)N2CCCC(c3cc(=O)nc4n3CCC4)C2)no1` (configuration not stated), the IC50 is over 30.2 µM.

Molecule `Cc1nc(C2CCCN(c3ncc(Br)cn3)C2)no1` (configuration not stated) had an IC50 of over 30.2 µM.

Take `Cc1cc(CN2C[C@@H]3COC[C@]3(COCC(=O)N(C)C)C2)no1`: the IC50 is over 30.2 µM.

For the molecule `O=C1Nc2ccccc2CNC12CCN(CC1CC1)CC2`, the IC50 is over 30.2 µM.

As to `O=C(NCCc1nncn1C1CC1)c1cnn(Cc2ccccc2)c1`, the IC50 is over 30.2 µM.

In the case of `CN1CCCN(C[C@@H]2CN(c3nc(C(N)=O)cs3)C[C@@H]2CO)CC1`, the IC50 is over 30.2 µM.

`CCOC(=O)[C@H]1[C@@H](O)C(=O)N(C)C12CCN(C(=O)c1ccccc1)CC2` gave an IC50 of over 30.2 µM.

Take `Cc1cc(C(=O)N2CCNC(=O)CC2)c(C)n1CC(F)(F)F`: the IC50 was over 30.2 µM.

Molecule `Cc1ccnc(NC(=O)c2c(C)oc(C)c2C)c1` showed an IC50 of over 30.2 µM.

`Cc1cc(S(=O)(=O)NC(C)(C)CN)c(F)cc1F` showed an IC50 of over 30.2 µM.

In the case of `CCOC(=O)[C@H]1[C@@H](O)C(=O)N(C)C12CCN(C(=O)C(CC)CC)CC2`, the IC50 was over 30.2 µM.

Regarding `CCOC(=O)[C@@H]1[C@@H](OC)C(=O)N(C)C12CCN(C(=O)C(CC)CC)CC2`, the IC50 was over 30.2 µM.

`CC(=O)NCCCSC1CCN(c2ccccc2F)C1=O` (configuration not stated) showed an IC50 of over 30.2 µM.

Take `CC(C)n1cnnc1C1CCCN(S(=O)(=O)CCCC#N)C1` (configuration not stated): the 50% inhibitory concentration (IC50) is over 30.2 µM.

On to `COc1ccc(C(C)NCc2ccnn2C)cc1Cn1cccn1` (configuration not stated), for which the IC50 was over 30.2 µM.

In turn, `Cc1cc(S(=O)(=O)NCC(C)(C)N)c(F)cc1F` showed an IC50 of over 30.2 µM.

As to `c1cnc(N2CCCC3(CCN(CC4CCOC4)CC3)C2)nc1` (configuration not stated), the IC50 is over 30.2 µM.

Regarding `O=C(C1=CCCC1)N1CCO[C@H]2[C@@H](Oc3ccccn3)CC[C@@H]21`, the IC50 was over 30.2 µM.

`Cc1occc1C(=O)N1CCO[C@H]2[C@H](OCc3ccccn3)CC[C@@H]21` gave an IC50 of over 30.2 µM.

Regarding `O=C(C1CCOCC1)N1CCO[C@H]2[C@H](Oc3ccccn3)CC[C@@H]21`, the IC50 is over 30.2 µM.

In turn, `Cc1ccnc(NC(=O)c2cc(C)oc2C)c1` had an IC50 of over 30.2 µM.

As to `CN1Cc2ccccc2NC(=O)C12CCNC2` (configuration not stated), the IC50 is over 30.2 µM.

The molecule `CCc1nc(C2CCCN(c3nccc(C)n3)C2)no1` (configuration not stated) had an IC50 of over 30.2 µM.

In the case of `CCn1ncnc1C1CC(=O)NCc2nc(N3CCOCC3)sc21` (configuration not stated), the IC50 was over 30.2 µM.

On to `CCn1ncc2c1C(COC)CN(Cc1ccc(C)o1)C2` (configuration not stated), for which the IC50 was over 30.2 µM.

`c1ccc([C@@H]2CN(Cc3cccnc3)C[C@H]2c2cc[nH]n2)cc1` showed an IC50 of over 30.2 µM.

Consider `c1cnc(N2CCC3(CCCN(CC4CC4)C3)CC2)nc1`, for which the IC50 was over 30.2 µM.

The molecule `CC(=O)NCCCSC1CCN(c2c(F)cccc2F)C1=O` (configuration not stated) showed an IC50 of over 30.2 µM.

Take `CN(C)C(=O)COC[C@]12COC[C@H]1CN(Cc1ccco1)C2`: the IC50 was over 30.2 µM.

Consider `CC(C)c1cc(C(=O)N2CCCC(c3cc(=O)nc4n3CCC4)C2)no1` (configuration not stated), for which the IC50 is over 30.2 µM.

In turn, `CCn1ncc2c1C(COC)CN(Cc1ccc(OC)cc1)C2` (configuration not stated) gave an IC50 of over 30.2 µM.

Molecule `Cc1oc(C)c(C(=O)Nc2ccccn2)c1C` had an IC50 of over 30.2 µM.

Turning to `c1cnc(N2CCC3(CCN(CC4CCOC4)CC3)C2)nc1` (configuration not stated), the IC50 is over 30.2 µM.

Regarding `CCCN1Cc2ccccc2NC(=O)C12CCNC2` (configuration not stated), the IC50 is over 30.2 µM.

For the molecule `Cc1cc(N2CCCC(c3nncn3C3CC3)C2)ncn1` (configuration not stated), the IC50 was over 30.2 µM.

For `Cc1cc(CNC(=O)c2ccno2)c(C)o1`, the IC50 was over 30.2 µM.

Turning to `CC(=O)NCCCSC1CCN(c2ccccc2Cl)C1=O` (configuration not stated), the IC50 was over 30.2 µM.

Molecule `Cc1cc(C(=O)N2CC[C@](C)(O)[C@H](C)C2)c(C)n1C` had an IC50 of over 30.2 µM.

`COC(=O)C(O)C1CCN(CCc2ccc(C)cc2)CC1` (configuration not stated) had an IC50 of over 30.2 µM.

As for `CCOC(=O)[C@H]1[C@@H](O)C(=O)N(C)C12CCN(S(=O)(=O)CC)CC2`, the IC50 was over 30.2 µM.

For the molecule `O=C(NC1CC1)C1CCN(c2nc3nc[nH]c(=O)c3s2)CC1`, the IC50 is over 30.2 µM.

Molecule `Cc1cccc(CN2C[C@@H]3COC[C@]3(COCC(=O)N(C)C)C2)n1` showed an IC50 of over 30.2 µM.

`CCn1c(C)cc(C(=O)N2CCC(NC(=O)c3ccc(C)o3)CC2)c1C` showed an IC50 of over 30.2 µM.

Consider `N#Cc1ccc2c(c1)CN(C(=O)c1nc[nH]n1)C2c1cnco1` (configuration not stated), for which the IC50 is over 30.2 µM.

Consider `O=C(NCCc1nncn1C1CC1)C1(c2ccccc2)CCC1`, for which the IC50 was over 30.2 µM.

Turning to `CC(c1ccc(Cl)cc1)N1CCN(CCNS(C)(=O)=O)CC1` (configuration not stated), the IC50 is over 30.2 µM.

`O=C1Nc2ccccc2CN(CC2CC2)C12CCNC2` (configuration not stated) gave an IC50 of over 30.2 µM.

`COc1cc(C)sc1C(=O)N1CC(c2cccnc2)C1`: the IC50 is over 30.2 µM.

For the molecule `Cc1occc1C(=O)N1CCCS1(=O)=O`, the IC50 is over 30.2 µM.

In turn, `CCn1cnnc1C1CCN(C(=O)c2cc(C)n(CC)c2C)CC1` gave an IC50 of over 30.2 µM.

With `Cc1ccnc(N2CCCC(c3nncn3C3CC3)C2)n1` (configuration not stated), the IC50 was over 30.2 µM.

On to `N#Cc1ccc2c(c1)CN(C(=O)C1CC=CC1)C2c1cnco1` (configuration not stated), for which the IC50 was over 30.2 µM.

`CCOC(=O)[C@H]1[C@@H](O)C(=O)N(C)C12CCN(C(=O)OCC)CC2`: the IC50 was over 30.2 µM.

Consider `CN(C)C(=O)CN1CCC2(CC1)COc1ccccc1S(=O)(=O)N(C)C2`, for which the IC50 is over 30.2 µM.

`CCn1ncc2c1C(COC)CN(Cc1ccco1)C2` (configuration not stated) had an IC50 of over 30.2 µM.

For `c1cnc(N2CCC3(CCN(CC4CCOCC4)CC3)C2)nc1`, the IC50 was over 30.2 µM.

In turn, `CC(C)CCS(=O)(=O)N1CCCC(c2nncn2C(C)C)C1` (configuration not stated) gave an IC50 of over 30.2 µM.

On to `CCn1ncc2c1C(COC)CN(Cc1cccnc1)C2` (configuration not stated), for which the IC50 is over 30.2 µM.

`COCCNC(=O)c1nnn(Cc2ccccc2)c1OC` had an IC50 of over 30.2 µM.

As for `CNc1ncc(CN(C)C(=O)c2cccc(-n3cccn3)c2)cn1`, the IC50 was over 30.2 µM.

As for `COC(=O)C(O)C1CCN(CCc2ccccn2)CC1` (configuration not stated), the IC50 was over 30.2 µM.

The molecule `CCc1nc(C2CCCN2c2ncc(Br)cn2)no1` (configuration not stated) had an IC50 of over 30.2 µM.

Regarding `CCOC(=O)[C@H]1[C@@H](O)C(=O)N(C)C12CCN(C(=O)CC(C)(C)C)CC2`, the IC50 was over 30.2 µM.

`COc1ccc(C(C)NCc2cccs2)cc1Cn1cccn1` (configuration not stated) gave an IC50 of over 30.2 µM.

Molecule `Cc1cnn(CC2CCCN2C(=O)c2cccc(-n3ccc(C)n3)c2)c1` (configuration not stated) gave an IC50 of over 30.2 µM.

For `CCNC(=O)c1cc2n(n1)CCCO2`, the IC50 was over 30.2 µM.

As for `COCCN(CCOC)C(=O)c1ccoc1C`, the IC50 is over 30.2 µM.

Molecule `CCC(=O)N1CCC2(CC1)COc1ccccc1S(=O)(=O)N(C)C2` had an IC50 of over 30.2 µM.

Molecule `Cc1cc(C(=O)N2CCCS2(=O)=O)c(C)o1` gave an IC50 of over 30.2 µM.

The molecule `CCC(C(=O)NCc1csc(N2CCOCC2)n1)n1cccn1` (configuration not stated) had an IC50 of over 30.2 µM.

Consider `CCc1nc(C2CCCN(c3ncccn3)C2)no1` (configuration not stated), for which the IC50 was over 30.2 µM.

As for `CSc1nccc(N2C[C@@H](CN3CCCCC3)[C@@H](CO)C2)n1`, the IC50 was over 30.2 µM.

Regarding `Cc1occc1C(=O)N1C[C@H](Oc2ccccn2)[C@H]2OCCC[C@H]21`, the IC50 is over 30.2 µM.

The molecule `CCN(C(=O)c1cc(C)oc1C)C1CC1` gave an IC50 of over 30.2 µM.

`CCn1ncc2c1C(COC)CN(Cc1nccs1)C2` (configuration not stated) had an IC50 of over 30.2 µM.

In turn, `CCOC(=O)[C@@H]1[C@@H](O)C(=O)N(C)C12CCN(C(=O)c1ccco1)CC2` had an IC50 of over 30.2 µM.

`COCCC1(C(=O)NCCc2nncn2C2CC2)CCC1` gave an IC50 of over 30.2 µM.

Regarding `Cc1cc(C(=O)N2CCC(Nc3cccnc3)CC2)c(C)s1`, the IC50 was over 30.2 µM.

Take `CC(C)CC1(C(=O)NCCc2nncn2C2CC2)CCC1`: the IC50 was over 30.2 µM.

Take `CCC(=O)NCC(=O)NCc1cc(Br)ccc1OC(F)F`: the IC50 is over 30.2 µM.

For `COc1cc(C(=O)N2CCC(Nc3cccnc3)CC2)ccc1C`, the IC50 was over 30.2 µM.

`CN(C)CC(=O)N1CCC2(CC1)COc1ccccc1S(=O)(=O)N(C)C2`: the IC50 is over 30.2 µM.

Consider `COc1ccc(C(C)NCc2cscn2)cc1Cn1cccn1` (configuration not stated), for which the IC50 was over 30.2 µM.

Consider `Cc1nc(COC[C@]23COC[C@H]2CN(Cc2ccoc2)C3)cs1`, for which the 50% inhibitory concentration (IC50) is over 30.2 µM.

In the case of `Cc1nccc(N2C[C@@H](CN3CCCC3)[C@@H](CO)C2)n1`, the IC50 is over 30.2 µM.

Molecule `O=c1[nH]nc(-c2cccs2)c2sc(N3CCOCC3)nc12` had an IC50 of over 30.2 µM.

Molecule `CN(C)C(=O)COC[C@]12COC[C@H]1CN(CCc1ccccc1)C2` gave an IC50 of over 30.2 µM.

Molecule `CCOC(=O)CNC(=O)c1cc2n(n1)CCCO2` had an IC50 of over 30.2 µM.

Turning to `FC(F)(F)c1cc(C2CCCN(c3ncccn3)C2)n2ccnc2n1` (configuration not stated), the IC50 was over 30.2 µM.

Turning to `CCN(CC)C(=O)c1nnn(Cc2ccccc2)c1OC`, the IC50 was over 30.2 µM.

As to `CCn1ncc2c1C(COC)CN(Cc1ccc(F)cc1)C2` (configuration not stated), the IC50 was over 30.2 µM.

`Cc1cc(S(=O)(=O)NCC(C)(O)CN(C)C)c(F)cc1F` (configuration not stated) gave an IC50 of over 30.2 µM.

For `CCn1c(C)cc(C(=O)N2CCC(NC(=O)c3cc(C)no3)CC2)c1C`, the IC50 was over 30.2 µM.

Turning to `Cc1ccsc1C(=O)N1CCC(Nc2cccnc2)CC1`, the IC50 was 14.5 µM and > 30.2 µM.

On to `Cc1occc1C(=O)N1CCOC2(CCCC2)C1`, for which the IC50 was over 30.2 µM.

Molecule `CS(=O)(=O)N1Cc2ccnn2CC(C(=O)NCc2cccnc2)C1` (configuration not stated) showed an IC50 of over 30.2 µM.

`COC(=O)CC1CCN(C(=O)c2ccc(-n3nnnc3C)cc2)CC1`: the IC50 was over 30.2 µM.
